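1) Cells in 96-well plates. 2) Compound, 48 h, 5 concentrations. 3) Linear interpolation between surrounding doses. 4) Unreached endpoint = highest concentration. Definition used: TGI = concentration required for complete inhibition of growth.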
Experiments:
Experiment in all cases: growth of human tumour cells (NCI), 48 h
U251 CNS = tested on: U251 CNS
T-47D breast = tested on: T-47D breast
NCI-H23 lung = tested on: NCI-H23 lung
DU-145 prostate = tested on: DU-145 prostate
UACC-62 melanoma = tested on: UACC-62 melanoma
RXF 393 renal = tested on: RXF 393 renal
BT-549 breast = tested on: BT-549 breast
MDA-MB-231 breast = tested on: MDA-MB-231 breast
SF-539 CNS = tested on: SF-539 CNS
MDA-N = tested on: MDA-N

SMILES | TGI (U251 CNS) [µM] | TGI (T-47D breast) [µM] | TGI (NCI-H23 lung) [µM] | TGI (DU-145 prostate) [µM] | TGI (UACC-62 melanoma) [µM] | TGI (RXF 393 renal) [µM] | TGI (BT-549 breast) [µM] | TGI (MDA-MB-231 breast) [µM] | TGI (SF-539 CNS) [µM] | TGI (MDA-N) [µM]
O=C1/C(=C2\SCC(=O)N2c2ccccc2)SC(=S)N1c1ccccc1 | > 100 | > 100 | > 100 | > 100 | > 100 | > 100 | > 100 | 45.2 | 85.4 | > 100
Cc1nc2ccccc2cc1C[N+]12CN3CN(CN(C3)C1)C2 | 28.2 | > 100 | 33.9 | 82.1 | 33.1 | 40.4 | 40 | 43.1 | 64.5 | 65.6
CN(C)/C=N/S(=O)(=O)c1nn2c(C=O)c(-c3cc4ccccc4oc3=O)nc2s1 | > 42.6 | 18.6 | 42.4 | > 36.6 | 27.5 | 9.97 | 33.1 | 32.3 | 61 | 20.7
O=[N+]([O-])c1ccc(-[n+]2ccc3ccccc3c2)c([N+](=O)[O-])c1 | 17.7 | 4.35 | 6.03 | 27.8 | 5.53 | 3.83 | 13.5 | 9.01 | 12 | 6
OCCNc1nc2c(N3CCCC3)nc(N3CCNCC3)nc2nc1NCc1ccccc1 | 23.3 | 30.8 | 34.2 | 24.2 | 31.3 | 24.7 | 30.8 | 29.4 | 32 | 24.7
COc1cc([C@@H]2c3cc4c(cc3[C@@H](Nc3ccc(NC(=O)c5cc(NC(=O)c6cc([N+](=O)[O-])cn6C)cn5C)cc3)[C@H]3COC(=O)[C@H]23)OCO4)cc(OC)c1O | 26.2 | > 62.8 | > 48.7 | 5.22 | > 100 | > 62.3 | > 100 | > 64 | > 100 | > 100
CN1CCN(c2c(O)c3c(c(O)c2Cl)C(=O)C=CC3=O)CC1 | 4.07 | 4.25 | 1.54 | 3.19 | 2.82 | 0.602 | 1.27 | 1.06 | 2.32 | 1.2
CC(C)(C)OC(=O)NCCNC(=O)CN(CC(=O)O)C1CCCCC1N(CC(=O)O)CC(=O)O (stereo not given) | > 100 | > 100 | > 100 | > 100 | > 100 | > 100 | > 100 | > 100 | > 100 | > 100
c1ccc(-c2nc3ccccc3n3nnnc23)cc1 | > 100 | 97.3 | > 100 | > 100 | > 100 | > 100 | > 100 | > 100 | > 100 | > 100
COC1=C(OC)C(=O)C(Cc2c(Cl)nc3n2CCS3)=C(C)C1=O | 35.2 | 54.1 | 47.5 | 40 | 26.4 | 36.4 | 27.5 | 27.5 | 28.1 | 26.8
Nc1ccc(-c2nc3cc(F)ccc3s2)cc1 | > 80 | > 100 | > 46.5 | > 100 | > 100 | > 100 | > 100 | 81.5 | > 100 | > 100
O=C(NC(CO)CO)c1ccc2cc(C(=O)N3CC(CCl)c4ccc([N+](=O)[O-])cc43)[nH]c2c1 (stereo not given) | > 100 | 64.2 | > 100 | > 100 | > 100 | > 100 | > 100 | > 100 | > 100 | > 100
Cc1csc2n(C)c(=O)c3ccccc3[n+]12 | > 100 | > 100 | > 100 | > 100 | > 100 | > 100 | > 100 | > 100 | > 100 | > 100
CCOC(=O)c1ccc(NC(NC(=O)CC)(C(F)(F)F)C(F)(F)F)cc1 | > 100 | > 100 | > 100 | > 100 | > 100 | > 100 | > 100 | > 100 | > 100 | > 100
COc1cc(C2c3cc4c(cc3OC(N3CCOCC3)C2C)OCO4)cc(OC)c1OC(C)=O (stereo not given) | > 80.9 | > 81.8 | > 95.2 | > 92.5 | > 84.5 | > 62.1 | > 100 | 99.2 | 40.2 | 4.94
O=[N+]([O-])c1ccc(Cl)cc1N/N=C/c1cccs1 | > 100 | > 100 | > 100 | > 100 | > 100 | > 100 | > 100 | > 100 | > 100 | > 100
C=C(COC(=O)C(C)C)[C@H]1Oc2ccc(C(C)=O)cc2[C@@H]1OC(=O)C(C)C | > 100 | > 100 | > 100 | > 100 | > 100 | > 100 | > 100 | > 100 | > 100 | > 100
O=C(O)C(CO)NC(=O)C1C(C(=O)O)C(c2ccccc2[N+](=O)[O-])C=C(c2ccco2)N1c1ccncc1 (stereo not given) | 6.21 | 23.9 | 19.9 | 23.6 | 20.3 | 3.12 | 22.8 | 7.56 | 3.64 | 8.42
O=C1C(CN2CCCC2)CCCC1CN1CCCC1 (stereo not given) | 41.3 | 6.96 | 4.27 | 34.2 | 31.9 | 8.08 | 3.62 | 31.1 | 16.1 | 19.2
Cc1ccc(CC(=O)Nc2ccc(NC(=O)CNC(=O)/C=C/c3ccc(-c4ccccc4)cc3)cc2C(=O)c2ccccc2)cc1 | 8.67 | 3.89 | 4.71 | 7.54 | 30.8 | 6.6 | 24 | 9.21 | 8.85 | 20.9
Cc1ccnc2sc3ccccc3c(=O)c12 | > 100 | > 100 | > 100 | > 100 | 63 | > 100 | > 100 | > 100 | > 100 | > 100
CC1=CC(=O)/C(=C/N2CCNC2=S)C(=O)O1 | > 100 | > 100 | > 100 | > 100 | > 100 | > 100 | > 100 | > 100 | > 100 | > 100
Cc1nn(C(=O)c2ccc(Cl)cc2)c2c1C(c1ccco1)SC(N)=N2 (stereo not given) | > 10 | > 10 | > 10 | > 10 | > 10 | > 10 | > 10 | > 10 | > 10 | > 10
O=C(CC(=O)Nc1ccccc1Cl)NNC(Sc1ccccc1)c1cc(N=Nc2ccc(Br)cc2)ccc1O (stereo not given) | 8.26 | 9.57 | 7.39 | > 10 | 3.9 | 5.82 | 5.99 | 8.68 | 3.8 | > 10
Cc1nc(N)nc(N)c1N1CCN(Cc2ccccc2)CC1 | > 100 | > 100 | > 100 | > 100 | > 100 | > 100 | > 100 | > 100 | > 100 | > 100
CSc1nc(=O)c(C#N)c(-c2ccccc2)n1C1OC(COC(C)=O)C(OC(C)=O)C(OC(C)=O)C1OC(C)=O (stereo not given) | > 100 | > 100 | > 100 | > 100 | > 100 | > 100 | > 100 | > 100 | > 100 | > 100
CCOC(=O)/C=C(/C(=O)OCC)n1ccc(=O)[nH]c1=O | 27.3 | 16.6 | 30.4 | 29 | 25.7 | 13.8 | 24.9 | 26.4 | 34.8 | 25.6
O=C(CCC(=O)OCC1OC(O)(CC2OC(CO)C(O)C(O)C2O)C(O)C1O)OCc1ccccc1 (stereo not given) | > 100 | > 100 | > 100 | > 100 | > 100 | > 100 | > 100 | > 100 | > 100 | > 100

From PubChem BioAssay (NCI)
